Experimental data published in ChEMBL document CHEMBL1201862, “PubChem BioAssay data set” (2004).
Active and inactive are the calls of the source.

Tests used:
Assay type in all cases: functional
[1] = target: Benomyl/methotrexate resistance protein (Candida albicans, UniProt P28873); test: Candida albicans Mdr1 pump inhibition curves – singleplex, Cherry Pick1 hits, dose response (AID 588608)
[2] = target: T1, Multidrug resistance protein CDR1 (Candida albicans, UniProt P43071); test: inhibition of Nile Red efflux via Candida CDR1 – S. cerevisiae AD1-8u, singleplex, Cherry Pick1 hits, dose response (AID 588606)
[3] = target: T2, Multidrug resistance protein CDR2 (Candida albicans (strain SC5314 / ATCC MYA-2876) (Yeast), UniProt P78595); test: inhibition of Nile Red efflux via Candida CDR2 – S. cerevisiae AD1-8u, singleplex, Cherry Pick1 hits, dose response (AID 588604)
T2 sequence (P78595 whole entry): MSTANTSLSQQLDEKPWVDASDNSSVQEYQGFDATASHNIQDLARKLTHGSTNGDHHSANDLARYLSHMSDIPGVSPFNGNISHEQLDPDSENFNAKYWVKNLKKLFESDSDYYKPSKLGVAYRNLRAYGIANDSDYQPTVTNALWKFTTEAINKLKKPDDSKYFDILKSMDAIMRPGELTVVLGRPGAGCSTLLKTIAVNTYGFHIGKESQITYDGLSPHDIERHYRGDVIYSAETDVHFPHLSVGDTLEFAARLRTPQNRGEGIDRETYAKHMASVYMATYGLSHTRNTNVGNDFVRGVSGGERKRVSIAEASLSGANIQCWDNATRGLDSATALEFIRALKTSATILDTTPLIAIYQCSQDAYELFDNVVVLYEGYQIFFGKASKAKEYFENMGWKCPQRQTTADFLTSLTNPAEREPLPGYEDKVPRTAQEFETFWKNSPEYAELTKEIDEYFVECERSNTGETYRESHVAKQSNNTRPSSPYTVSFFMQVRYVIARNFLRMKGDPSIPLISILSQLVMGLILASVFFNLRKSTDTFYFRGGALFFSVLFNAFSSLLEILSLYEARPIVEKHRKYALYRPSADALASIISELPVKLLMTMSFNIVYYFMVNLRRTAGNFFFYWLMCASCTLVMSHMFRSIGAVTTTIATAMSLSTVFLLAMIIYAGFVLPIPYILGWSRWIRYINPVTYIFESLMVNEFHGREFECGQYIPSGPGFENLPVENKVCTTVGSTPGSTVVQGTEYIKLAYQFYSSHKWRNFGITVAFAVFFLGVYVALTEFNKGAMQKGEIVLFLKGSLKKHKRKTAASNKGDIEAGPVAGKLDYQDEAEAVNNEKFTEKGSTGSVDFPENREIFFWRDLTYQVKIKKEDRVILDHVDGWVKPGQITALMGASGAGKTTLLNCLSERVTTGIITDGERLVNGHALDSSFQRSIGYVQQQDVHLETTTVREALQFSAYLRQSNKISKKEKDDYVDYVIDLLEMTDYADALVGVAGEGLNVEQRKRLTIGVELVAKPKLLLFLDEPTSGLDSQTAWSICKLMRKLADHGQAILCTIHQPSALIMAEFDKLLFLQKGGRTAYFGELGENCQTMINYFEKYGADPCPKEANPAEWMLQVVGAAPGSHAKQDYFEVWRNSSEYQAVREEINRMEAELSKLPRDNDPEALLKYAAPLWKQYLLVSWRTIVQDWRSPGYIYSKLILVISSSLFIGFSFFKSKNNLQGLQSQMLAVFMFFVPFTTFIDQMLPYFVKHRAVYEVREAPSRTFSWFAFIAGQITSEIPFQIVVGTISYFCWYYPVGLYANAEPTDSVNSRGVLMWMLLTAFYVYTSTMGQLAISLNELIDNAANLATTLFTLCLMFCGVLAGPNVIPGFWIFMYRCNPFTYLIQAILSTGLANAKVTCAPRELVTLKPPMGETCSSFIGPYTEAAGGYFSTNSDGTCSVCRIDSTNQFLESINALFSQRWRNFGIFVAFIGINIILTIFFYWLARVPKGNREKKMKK

[4] = target: T1, Multidrug resistance protein CDR1; test: Candida albicans Cdr1 pump inhibition curves – singleplex, Cherry Pick2 set, dose response (AID 623996); conditions: read-out: EC50_MICROM
[5] = target: T2, Multidrug resistance protein CDR2; test: blockers of Nile Red efflux by Candida CDR2 – S. cerevisiae AD1-8u, singleplex, Cherry Pick2 set, dose response (AID 623994); conditions: read-out: EC50_MICROM
[6] = target: T3, High affinity choline transporter 1 (Homo sapiens, UniProt Q9GZV3); test: human choline transporter blockers, potency – cell-based, 5-point CRC, membrane potential dye, dose response (AID 504840)
T3 sequence (Q9GZV3 whole entry): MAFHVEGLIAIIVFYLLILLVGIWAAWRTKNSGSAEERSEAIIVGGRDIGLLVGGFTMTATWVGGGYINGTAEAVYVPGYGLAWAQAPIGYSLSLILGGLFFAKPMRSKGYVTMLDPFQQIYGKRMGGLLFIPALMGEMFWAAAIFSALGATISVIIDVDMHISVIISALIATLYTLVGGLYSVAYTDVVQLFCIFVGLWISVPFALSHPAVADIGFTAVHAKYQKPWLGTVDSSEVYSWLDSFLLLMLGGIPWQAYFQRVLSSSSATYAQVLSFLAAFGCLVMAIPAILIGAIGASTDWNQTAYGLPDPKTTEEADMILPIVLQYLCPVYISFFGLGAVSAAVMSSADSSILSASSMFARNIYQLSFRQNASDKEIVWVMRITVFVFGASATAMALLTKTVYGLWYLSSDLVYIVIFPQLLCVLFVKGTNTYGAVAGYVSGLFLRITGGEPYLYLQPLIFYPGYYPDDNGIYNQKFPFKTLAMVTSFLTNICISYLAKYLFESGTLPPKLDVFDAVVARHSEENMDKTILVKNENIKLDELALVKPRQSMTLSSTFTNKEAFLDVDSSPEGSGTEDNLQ

[7] = target: T3, High affinity choline transporter 1; test: human choline transporter blockers, potency – cell-based, 10-point CRC, membrane potential dye, dose response (AID 588401);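 note: membrane potential dye fluorescence of choline-evoked depolarization via CHT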

T1 sequence (P43071 whole entry, looked up): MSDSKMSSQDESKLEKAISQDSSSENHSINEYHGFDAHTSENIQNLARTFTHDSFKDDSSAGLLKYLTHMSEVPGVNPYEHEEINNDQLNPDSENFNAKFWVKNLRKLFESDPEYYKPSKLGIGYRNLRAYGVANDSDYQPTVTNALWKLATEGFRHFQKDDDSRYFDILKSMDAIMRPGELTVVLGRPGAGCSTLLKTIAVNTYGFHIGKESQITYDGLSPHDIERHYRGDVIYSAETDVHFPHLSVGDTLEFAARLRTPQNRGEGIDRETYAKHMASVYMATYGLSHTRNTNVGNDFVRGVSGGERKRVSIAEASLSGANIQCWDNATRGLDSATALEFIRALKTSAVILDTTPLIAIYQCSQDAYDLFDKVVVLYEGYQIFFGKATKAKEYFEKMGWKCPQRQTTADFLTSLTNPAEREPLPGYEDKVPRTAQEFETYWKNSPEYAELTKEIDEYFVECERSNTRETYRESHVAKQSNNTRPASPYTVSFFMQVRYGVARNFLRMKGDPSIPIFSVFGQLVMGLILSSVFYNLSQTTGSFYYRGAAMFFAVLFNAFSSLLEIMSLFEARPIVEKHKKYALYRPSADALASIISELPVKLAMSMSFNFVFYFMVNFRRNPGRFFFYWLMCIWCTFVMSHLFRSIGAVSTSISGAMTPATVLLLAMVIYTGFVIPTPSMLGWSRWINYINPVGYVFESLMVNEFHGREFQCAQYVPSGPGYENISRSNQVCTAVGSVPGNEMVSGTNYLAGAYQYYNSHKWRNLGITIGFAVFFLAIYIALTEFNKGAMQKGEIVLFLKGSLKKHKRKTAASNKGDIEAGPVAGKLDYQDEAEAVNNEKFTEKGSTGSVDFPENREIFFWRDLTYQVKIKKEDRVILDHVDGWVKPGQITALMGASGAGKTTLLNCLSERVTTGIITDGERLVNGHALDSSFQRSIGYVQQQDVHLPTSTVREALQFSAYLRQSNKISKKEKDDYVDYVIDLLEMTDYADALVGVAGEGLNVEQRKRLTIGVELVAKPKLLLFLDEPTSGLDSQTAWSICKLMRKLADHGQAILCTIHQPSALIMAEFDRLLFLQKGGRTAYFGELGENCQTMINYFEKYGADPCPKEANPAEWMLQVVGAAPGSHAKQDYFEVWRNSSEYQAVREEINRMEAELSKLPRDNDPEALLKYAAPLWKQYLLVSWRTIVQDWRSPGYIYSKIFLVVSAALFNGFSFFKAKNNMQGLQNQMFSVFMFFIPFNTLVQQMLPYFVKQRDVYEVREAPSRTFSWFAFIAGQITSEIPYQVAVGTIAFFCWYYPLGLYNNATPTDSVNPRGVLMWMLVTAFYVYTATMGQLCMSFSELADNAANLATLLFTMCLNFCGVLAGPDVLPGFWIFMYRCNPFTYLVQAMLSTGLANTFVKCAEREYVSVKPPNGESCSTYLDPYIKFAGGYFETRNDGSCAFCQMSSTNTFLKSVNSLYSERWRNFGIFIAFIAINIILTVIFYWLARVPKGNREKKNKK
Sequence of Benomyl/methotrexate resistance protein (P28873 whole entry): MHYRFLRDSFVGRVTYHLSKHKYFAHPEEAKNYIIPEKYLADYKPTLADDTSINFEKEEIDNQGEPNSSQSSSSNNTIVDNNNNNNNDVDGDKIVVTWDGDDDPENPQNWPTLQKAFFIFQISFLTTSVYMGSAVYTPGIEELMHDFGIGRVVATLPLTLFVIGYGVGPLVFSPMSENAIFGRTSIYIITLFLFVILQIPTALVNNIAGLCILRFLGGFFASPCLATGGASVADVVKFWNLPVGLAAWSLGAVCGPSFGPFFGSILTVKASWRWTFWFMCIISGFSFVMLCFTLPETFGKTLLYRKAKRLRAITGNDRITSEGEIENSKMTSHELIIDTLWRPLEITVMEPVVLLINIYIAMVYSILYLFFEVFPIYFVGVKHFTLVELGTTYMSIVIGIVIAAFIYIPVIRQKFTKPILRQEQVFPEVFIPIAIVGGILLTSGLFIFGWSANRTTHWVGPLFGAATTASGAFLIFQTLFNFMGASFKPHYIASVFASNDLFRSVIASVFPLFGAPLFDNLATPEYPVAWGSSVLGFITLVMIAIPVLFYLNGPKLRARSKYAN

COc1ccc2sc(-c3ccccc3OC)c(-c3ccc(OCCN(C)C)cc3)c2c1
active: EC50 [1] 10.5 µM | EC50 [2] 13.3 µM | EC50 [3] 10.2 µM | EC50 [4] 20.1 µM | EC50 [5] 5.43 µM

CCOCCCNS(=O)(=O)c1ccc(NC(=O)c2ccc([N+](=O)[O-])cc2Cl)cc1
active: IC50 [6] 1.45 µM | IC50 [7] 0.501 µM
